According to ChEMBL document CHEMBL1131120, “The frontier orbital phase angles: novel QSAR descriptors for benzene derivatives, applied to phenylalkylamine hallucinogens” (1998):

Species on record: Homo sapiens
Assay: Compound tested for hallucinogenic activity in humans was reported; Value reported in (A)= Mescaline units
Assay type: functional

| Compound | Activity |
| --- | --- |
| COc1cc(CCN)c(OC)c2ccccc12 | 10 |
| COCCSc1cc(OC)c(CCN)cc1OC | 9 |
| CCCSc1cc(OC)c(CCN)cc1OC | 15 |
| CCC(C)Sc1cc(OC)c(CCN)cc1OC (stereo not given) | 4 |
| COc1cc(OC)c(CC(C)N)cc1Br (stereo not given) | 4 |
| COc1cc(CCN)cc(OC)c1OC(C)C | 5 |
| COc1cc(SCCF)c(OC)cc1CCN | 29 |
| CCOc1cc(CCN)cc(OC)c1OC | 1 |
| COc1cc2c(cc1CC(C)N)OCO2 (stereo not given) | 8 |
| COc1cc(SC(C)C)c(OC)cc1CC(C)N (stereo not given) | 32 |
| CCOc1cc(CCN)cc(OC)c1SCC | 4 |
| COc1cc(CCN)c(OC)cc1C | 8 |
| COc1cc(C)cc(OC)c1CC(C)N (stereo not given) | 15 |
| COc1cc(CC(C)N)c(OC)c(OC)c1 (stereo not given) | 4 |
| COc1cc(CC(C)N)cc2c1OCO2 (stereo not given) | 2 |
| CCOc1c(OC)cc(CC(C)N)cc1OC (stereo not given) | 7 |
| COc1cc(C2CC2N)c(OC)cc1C (stereo not given) | 17 |
| COc1ccc(OC)c(CC(C)N)c1 (stereo not given) | 2.5 |
| COc1cc(CC(C)N)c(OC)c2c1CCC2 (stereo not given) | 20 |
| CCOc1cc(CCN)cc(OC)c1SC | 4 |
| CCOc1c(OC)cc(CCN)cc1SC | 4 |
| CC(C)(N)Cc1ccc2c(c1)OCO2 | 1.5 |

| Compound | Activity |
| --- | --- |
| CCSc1c(OC)cc(CCN)cc1OC | 12 |
| COc1cc(OC)c(OC)cc1CC(C)N (stereo not given) | 10 |
| CCc1cc(OC)c(CC(C)N)cc1OC (stereo not given) | 75 |
| COc1cc(CCN)cc(OC)c1OC [MESCALINE] | 1 |
| COc1cc(CC(C)N)cc(OC)c1Br (stereo not given) | 43 |
| COc1cc(CC(C)N)c(OC)cc1CCF (stereo not given) | 110 |
| CCOc1cc(CCN)cc(SC)c1OCC | 2 |
| CCSc1cc(CCN)cc(OC)c1OC | 4 |
| COc1cc(CCN)cc(OC)c1C | 4 |
| CCOc1c(OC)cc(CCN)cc1OC | 6 |
| CC(Cc1ccc2c(c1)OCO2)NO (stereo not given) | 2.3 |
| COc1cc(CCN)cc(OC)c1SC | 10 |
| COc1ccc(OC)c(OC)c1CC(C)N (stereo not given) | 10 |
| COc1cc(CCN)c(OC)cc1I | 17 |
| CCCOc1c(OC)cc(CCN)cc1OC | 7 |
| COc1cc(CC(C)N)c(SC)cc1C (stereo not given) | 4 |
| CCc1cc(OC)c(CC(C)N)cc1SC (stereo not given) | 15 |
| COc1cc(CC(C)N)c(OC)c(OC)c1OC (stereo not given) | 6 |
| COc1cc(SC)c(OC)cc1CC(C)N (stereo not given) | 40 |
| COc1cc(CC(C)N)cc(OC)c1OCc1ccccc1 (stereo not given) | 3 |
| COc1cc(SCC2CC2)c(OC)cc1CCN | 7 |
| COc1cc(SC)c(OC)cc1CCN | 4 |

| Compound | Activity |
| --- | --- |
| CCCc1cc(OC)c(CCN)cc1OC | 37 |
| COc1cc(CCN)cc(SC)c1OC | 4 |
| CCCSc1c(OC)cc(CCN)cc1OC | 16 |
| CCCSc1cc(OC)c(CCNO)cc1OC | 15 |
| CCC(Cc1ccc2c(c1)OCO2)NC (stereo not given) | 1.5 |
| COc1cc(OC)c(CC(C)N)c(OC)c1 (stereo not given) | 10 |
| COc1cc(SC(C)C)c(OC)cc1CCN | 21 |
| COc1cc(CCN)cc(OC)c1OCC1CC1 | 4 |
| CCCCSc1c(OC)cc(CCN)cc1OC | 3 |
| COc1cc(CC(C)N)c(OC)cc1Br (stereo not given) [BROLAMFETAMINE] | 150 |
| C=CCOc1c(OC)cc(CC(C)N)cc1OC (stereo not given) | 11 |
| C=C(C)COc1c(OC)cc(CCN)cc1OC | 6 |
| COc1cc(SC(C)(C)C)c(OC)cc1CCN | 4 |
| COc1cc(CCN)c(OC)c2c1CCC2 | 14 |
| CCc1cc(OC)c(CCN)cc1OC | 18 |
| CCCSc1cc(OC)c(CC(C)N)cc1OC (stereo not given) | 55 |
| CCC(N)Cc1ccc2c(c1)OCO2 (stereo not given) | 1.5 |
| COc1c(CC(C)N)ccc2c1OCO2 (stereo not given) | 6 |
| CCSc1cc(OC)c(CCNO)cc1OC | 22 |
| COc1cc(CC(C)N)c(OC)c(C)c1C (stereo not given) | 12 |
| CCOc1cc(CCN)cc(OC)c1OCC | 1.3 |
| COc1cc(CC(C)N)c(OC)cc1Cl (stereo not given) | 133 |

| Compound | Activity |
| --- | --- |
| CCC(C)Sc1cc(OC)c(CCNO)cc1OC (stereo not given) | 3 |
| CC(N)Cc1ccc2c(c1)OCO2 (stereo not given) [TENAMFETAMINE] | 3 |
| COc1cc(CCN)c(OC)cc1Br | 16 |
| COc1cc(CC(C)N)c(OC)cc1I (stereo not given) | 133 |
| COc1cc(CC(C)N)c(OC)cc1C (stereo not given) [DOM] | 50 |
| COc1cc([N+](=O)[O-])c(OC)cc1CC(C)N (stereo not given) | 80 |
| COc1cc(C)c(SC)cc1CC(C)N (stereo not given) | 7 |
| CCSc1cc(OC)c(CCN)cc1OC | 16 |
| COc1cc(CC(C)N)cc(OC)c1OC (stereo not given) | 2 |
| CCCc1cc(OC)c(CC(C)N)cc1OC (stereo not given) | 80 |
| COc1cc(CCN)c(OC)c(C)c1C | 11 |
| COc1cc(CC(C)N)c(OC)c2c1OCO2 (stereo not given) | 6 |
| CCOc1cc(OC)c(CC(C)N)cc1OC (stereo not given) | 9 |
| CCSc1cc(OC)c(CC(C)N)cc1OC (stereo not given) | 50 |
| COc1ccc(CC(C)N)cc1 (stereo not given) [PARA-METHOXYAMPHETAMINE] | 5 |
| CCNC(C)Cc1ccc2c(c1)OCO2 (stereo not given) | 2 |
| COc1cc(CCN)c(OC)c2c1C1CCC2C1 (stereo not given) | 22 |
| CCOc1c(OC)cc(CCN)cc1SCC | 2 |
| COc1cc(CCN)c(OC)cc1Cl | 10 |
